Data on six compounds can be found in patent US20250115578A1, “AROMATIC FUSED RING NAV1.8 INHIBITOR, AND USE THEREOF” (CHENGDU KANGHONG PHARMACEUTICAL CO., LTD., priority 2022, published 2025).

The solubility (kinetic) is solubility judged after dilution from a stock solution rather than from solid.

A short description of series [1]: Assay of kinetic solubility. It is filed as physicochemical. As to conditions: aqueous buffer, kinetic from dmso stock, pH 3.5 phosphate buffer, 25° C.
The subject of series [2] is postoperative pain model in rats. The series is described as follows: Efficacy test in postoperative pain model in rats (mechanical allodynia, PWT). It is filed as in vivo, Sprague-Dawley male rats. Conditions: single oral 30 mg/kg; for Inhibition of mechanical hyperalgesia induced by postoperative pain model: at 1 h, 2 h and 4 h after administration. The procedure:
Sprague-Dawley male rats, purchased from Zhejiang Vital River Laboratory Animal Technology Co., LTD
Compounds of the example 10, 14, 16, 31 of the invention were weighted and prepared into solutions of 3 mg/mL using 5% DMSO (Anhui Senrise Technologies Co., Ltd)+30% Solutol HS15 (Beijing Ouhe Technology Co., LTD.)+65% water for injection, and administered at a volume of 10 mL/kg by gavage. The dosage was 30 mg/kg.
Animals were anesthetized with Zoletil 50+ Xylazine Hydrochloride (20 mg/kg+8 mg/kg, intraperitoneally injected). The surgical area on the plantar skin of the left hind paw was disinfected three times with iodophor and 70% ethanol, and the surgery was started after the skin was dry.
A longitudinal incision about 1 cm was made towards the toes starting from 0.5 cm away from the heel of the left hind paw. After the skin was incised, the flexor digitorum brevis was raised and longitudinal blunt injury was caused. After hemostasis by pressing, the wound was sutured. After surgery, animals were placed on an electric warm pad and 5 mL of physiological saline was injected subcutaneously to prevent dehydration. 24 h after modeling, all animals (including the normal control group) were tested for base mechanical allodynia (PWT). The modeling animals without mechanical hypersensitivity (PWT greater than 5 g) were excluded and […] were selected and randomly divided into 5 groups, with 9 animals in each group except 5 in the normal group (negative control group).
The animals were weighed and administered orally at a volume of 10 mL/kg. Except normal control animals, other animals were given a single dose of compounds, and mechanical allodynia was performed by test fibers on all groups of animals at 1 h, 2 h and 4 h after dosing. The rats were placed individually in a plexiglass box with a grid at the bottom to ensure that the paws of the rats could be tested. The rats would acclimate for 15 minutes before the test. After the acclimation was completed, the test fibers were used to test on the plantar center of the rat's left hind paw. Pressed the test fiber vertically against the skin and applied force to bend the fiber for 6 to 8 seconds, with 5 second intervals between each test. The rapid withdrawal of the animal's paws during the test was recorded as a pain response. The animal's paw withdrawal when the fibers left the animal's skin was also recorded as a pain response. If the animal moves or walks around, it's not recorded as a pain response, and the test should be repeated.
Mechanical hyperalgesia was expressed as the paw withdrawal threshold (PWT) in the rat behavioral test, which was calculated according to the following formula:
50% response threshold (g)=(10^(Xf+kδ)/10,000 • Xf=final test fiber value used in the test • k=table value (Chaplan et al. 1994, page 62) • δ=mean deviation
Data were collected with excel software and analyzed with Prism 7.0 (Graph pad software, Inc.) software by two-way ANOVA followed by Dunnett multiple comparison test.

≈ marks a conversion by molar mass, not a printed value.

The compound `NC(=O)c1cc(NC(=O)c2nc3ccccc3nc2N2CCCC(F)(F)CC2)ccn1` [Example 05, N-(2-carbamoylpyridin-4-yl)-3-(4,4-difluoroazepan-1-yl)quinoxaline-2-carboxamide] had a solubility (kinetic) at 2 h in series [1] of 0.39 µM (≈ 0.166 µg/mL).
`NS(=O)(=O)c1cccc(NC(=O)c2cc3cc(F)c(F)cc3nc2N2CCCC(F)(F)CC2)c1` [Example 16, 2-(4,4-difluoroazepan-1-yl)-6,7-difluoro-N-(3-sulfamoylphenyl) quinoline-3-carboxamide]: in series [2] (after 1 h of administration), the “Efficacy compared with example compound 31” value is “significantly more effective than example compound 31”. For the same compound, the “Inhibition of mechanical hyperalgesia induced by postoperative pain model” value (“Inhibition” below) in series [2] is reported as “inhibited mechanical hyperalgesia”.
Regarding `NS(=O)(=O)c1cc(NC(=O)c2cc3ccccc3nc2N2CCCC(F)(F)CC2)ccn1` [Example 14, 2-(4,4-difluoroazepan-1-yl)-N-(2-sulfamoylpyridine-4-yl) quinoline-3-carboxamide], in series [1], the kinetic solubility at 2 h is 271 µM (≈ 125 µg/mL). In addition, the “Inhibition” value in series [2] was “inhibited mechanical hyperalgesia”. Further, the “Efficacy compared with example compound 31” value in series [2] (at 1 h and 4 h after administration) is given as “significantly stronger than that of example compound 31”.
Turning to `NC(=O)c1cc(NC(=O)c2nc3ccccc3nc2N2CCCC(F)(F)CC2)ccc1F` [Example 02, N-(3-carbamoyl-4-fluorophenyl)-3-(4,4-difluoroazepan-1-yl)quinoxaline-2-carboxamide], the kinetic solubility at 2 h in series [1] turned out to be 2.8 µM (≈ 1.24 µg/mL).
As to `NC(=O)c1cc(NC(=O)c2cc3cc(F)c(F)cc3nc2N2CCCC(F)(F)CC2)ccn1` [Example 10, N-(2-carbamoylpyridin-4-yl)-2-(4,4-difluoroazepan-1-yl)-6,7-difluoroquinoline-3-carboxamide], the “Inhibition” value in series [2] was “inhibited mechanical hyperalgesia”.
With `NC(=O)c1cc(NC(=O)c2cc3ccccc3nc2N2CCCC(F)(F)CC2)ccn1` [Example 08, N-(2-carbamoylpyridin-4-yl)-2-(4,4-difluoroazepan-1-yl)quinoline-3-carboxamide], in series [1], the kinetic solubility at 2 h is 175 µM (≈ 74.5 µg/mL).
